Converted amounts (≈) assume the structure as drawn.

One may read the solubility as the concentration that dissolves in the medium under given conditions. The low end stands for little dissolved substance, the high end for much dissolved substance.

In data set [1] the target is T1, glucocerebrosidase (Gcase) (Homo sapiens, UniProt P04062).
T1 sequence (P04062 40-536): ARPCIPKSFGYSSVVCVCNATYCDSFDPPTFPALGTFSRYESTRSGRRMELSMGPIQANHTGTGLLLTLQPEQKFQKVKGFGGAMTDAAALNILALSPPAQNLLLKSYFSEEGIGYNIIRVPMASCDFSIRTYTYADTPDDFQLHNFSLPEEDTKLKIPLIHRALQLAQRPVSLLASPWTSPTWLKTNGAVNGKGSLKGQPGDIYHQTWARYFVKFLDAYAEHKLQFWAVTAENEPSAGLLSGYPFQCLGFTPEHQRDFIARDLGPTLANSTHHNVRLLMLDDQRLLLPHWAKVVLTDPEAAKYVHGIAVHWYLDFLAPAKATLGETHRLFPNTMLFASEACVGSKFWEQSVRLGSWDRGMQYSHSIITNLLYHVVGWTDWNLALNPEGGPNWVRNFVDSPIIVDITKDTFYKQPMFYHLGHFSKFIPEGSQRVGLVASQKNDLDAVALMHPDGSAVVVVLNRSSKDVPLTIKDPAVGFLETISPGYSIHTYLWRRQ
As to the kind of experiment: Glucocerebrosidase (Gcase) activation assay, 4-methylumbelliferyl-beta-D-glucopyranoside substrate, fluorescence. The note with it: 0.25 h, 10 nM GCase, 100 nM saposin C; for activation at 0.1 µM: pH 4.7, test compound at 0.1 μM, read-out: Percent Gcase Activation 0.1 μM Test Compound; for activation at 1 µM: pH 4.7, test compound at 1.0 μM, read-out: Percent Gcase Activation 1 μM Test Compound. Format: biochemical. The method, boiled down: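 10 nM GCase with 100 nM saposin C in Triton/phosphatidylserine micelles (citrate-phosphate, pH 4.7), pre-incubated 30 min at room temperature with compound, then 2 mM 4-methylumbelliferyl-β-D-glucoside stock mixed 1:1; 15 min reaction, stopped with glycine pH 12.5, fluorescence at 365/440 nm. Activation scored at 1.0 and 0.1 μM; 8-point curves from 5 μM top.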

A short description of data set [2]: Compound solubility in water. It counts as physicochemical.

With `COc1ccccc1[C@H](C)NC(=O)c1ccn2c(C)cc(C)nc12` [IV-27], in data set [1], the activation at 0.1 µM is above 20% and the activation at 1 µM was above 60%. The same compound registered a solubility in data set [2] of 3 µg/mL (≈ 9.28 µM).
Taken in the same sequence, the figures for `Cc1cc(C)n2ccc(C(=O)NC(C3CC3)C(F)(F)F)c2n1` (stereo not drawn) [IV-16] were above 20%, above 60% and 3.1 µg/mL (≈ 9.96 µM).
Regarding `Cc1cc(C)n2ccc(C(=O)N[C@@H](C)c3ccccc3F)c2n1` [IV-20], in data set [1], the activation at 0.1 µM was above 20% and the activation at 1 µM is above 60%. This compound also yielded a solubility in data set [2] of 2.5 µg/mL (≈ 8.03 µM).
For `Cc1cc(-c2ccc(F)cc2)n2ccc(C(=O)N[C@@H](C)C3CC3)c2n1` [III-31], in data set [1], the activation at 0.1 µM is below 10% and the activation at 1 µM lay within 30 to 60%. In data set [2], this compound yielded a solubility of 0.7 µg/mL (≈ 2.07 µM).
As to `Cc1cc(-c2cccnc2)nc2c(C(=O)NC(C)(C)C3CC3)ccn12` [III-41], in data set [1], the activation at 0.1 µM is above 20% and the activation at 1 µM is above 60%. The solubility in data set [2] was found to be 2.5 µg/mL (≈ 7.48 µM).
As for `CCc1cc(C)nc2c(C(=O)N[C@H]3CC[C@H](OC(C)(C)C)CC3)ccn12` [IV-5], in data set [1], the activation at 0.1 µM was in the range of 10 to 20% and the activation at 1 µM is above 60%. Further, the solubility in data set [2] was 8.1 µg/mL (≈ 22.7 µM).
Taken in the same sequence, the figures for `CCC(NC(=O)c1ccn2c(C)cc(C)nc12)c1ccc2c(c1)OCCO2` (stereo not drawn) [IV-62] were 10 to 20%, above 60% and 1.1 µg/mL (≈ 3.01 µM).
On to `Cc1cc(C)n2ccc(C(=O)N[C@H](C)C3CC3)c2n1` [III-65], for which, in data set [1], the activation at 0.1 µM is below 10% and the activation at 1 µM lay in the range of 30 to 60%. In data set [2], this compound showed a solubility of 20.7 µg/mL (≈ 80.4 µM).
With `CCC(NC(=O)c1ccn2c(C)cc(C)nc12)c1nc(C2CC2)no1` (stereo not drawn) [IV-58], in data set [1], the activation at 0.1 µM was below 10% and the activation at 1 µM was in the range of 30 to 60%. The compound further returned a solubility in data set [2] of 18.5 µg/mL (≈ 54.5 µM).
Taken in the same sequence, the figures for `COc1cccc([C@@H](C)NC(=O)c2ccn3c(C)cc(C)nc23)c1` [IV-32] were 10 to 20%, above 60% and 7.8 µg/mL (≈ 24.1 µM).
Taken in the same sequence, the figures for `COCc1cc(C)n2ccc(C(=O)N[C@H]3CC[C@H](OCC(C)(C)C)CC3)c2n1` [IV-1] were above 20%, above 60% and 2.5 µg/mL (≈ 6.45 µM).
In the case of `Cc1ccc([C@H](C)NC(=O)c2ccn3c(C)cc(C)nc23)cc1` [IV-30], in data set [1], the activation at 0.1 µM was in the range of 10 to 20% and the activation at 1 µM is above 60%. Besides, in data set [2], the solubility amounted to 2.6 µg/mL (≈ 8.46 µM).
For the compound `Cc1cc(C)n2cc(C3CC3)c(C(=O)NC(C)(C)C3CC3)c2n1` [III-25], in data set [1], the activation at 0.1 µM is below 10% and the activation at 1 µM fell in the range of 30 to 60%. The solubility in data set [2] is 0.3 µg/mL (≈ 0.963 µM).
For `COCc1cc(C)nc2c(C(=O)NC(C)(C)C3CC3)ccn12` [III 16], in data set [1], the activation at 0.1 µM is above 20% and the activation at 1 µM is above 60%. For the same compound, the solubility in data set [2] came out at 19.8 µg/mL (≈ 65.7 µM).
As for `Cc1cc(C)n2ccc(C(=O)NC(C)(C)c3cccc4ccccc34)c2n1` [IV-48], in data set [1], the activation at 0.1 µM was above 20% and the activation at 1 µM is above 60%. This compound displayed a solubility in data set [2] of 0.6 µg/mL (≈ 1.68 µM).
Taken in the same sequence, the figures for `Cc1cc(Br)nc2c(C(=O)NC(C)(C)C3CC3)ccn12` [III-14] were 10 to 20%, above 60% and 2.9 µg/mL (≈ 8.62 µM).
In the case of `CCCCO[C@H]1CC[C@H](NC(=O)c2ccn3c(C)cc(-c4cccnc4)nc23)CC1` [III-59], in data set [1], the activation at 0.1 µM was above 20% and the activation at 1 µM is above 60%. The compound also showed a solubility in data set [2] of 1.9 µg/mL (≈ 4.67 µM).
Turning to `Cc1cc(-c2ccccn2)nc2c(C(=O)NC(C)(C)C3CC3)ccn12` [III-39], in data set [1], the activation at 0.1 µM was above 20% and the activation at 1 µM is above 60%. In data set [2], this compound showed a solubility of 0.7 µg/mL (≈ 2.09 µM).
Turning to `C[C@H](NC(=O)c1ccn2ccc(-c3ccc(F)cc3)nc12)C1CC1` [III-47], in data set [1], the activation at 0.1 µM was below 10% and the activation at 1 µM lay within 30 to 60%. In data set [2], the solubility worked out at 0.1 µg/mL (≈ 0.309 µM).

Source of the values: patent US11124516B2, “Pyrrolo[1,2-A]pyrimidinyl carboxamide compounds and their use in the treatment of medical disorders” (Bial—Biotech Investments, Inc., priority 2016, dated 2021).
